Experiments:
[1] = target: T1, human odorant receptors (ORs) (Homo sapiens, UniProt Q9H255); test: CRE-luciferase assay of odorant receptor activation (Dual-Glo, Hana3A cells, RTP1S), dose-response EC50; assay type: cell-based; conditions: receptor OR51E2; read-out: log EC50 of odorant at OR51E2 (0 = no response) (converted)
T1 construct: OR open reading frames were amplified from genomic DNA; expressed in transfected cells; host or cells: Hana3A cells, co-transfected with RTP1S, CRE-luciferase and pRL-SV40
T1 sequence (Q9H255 1-320): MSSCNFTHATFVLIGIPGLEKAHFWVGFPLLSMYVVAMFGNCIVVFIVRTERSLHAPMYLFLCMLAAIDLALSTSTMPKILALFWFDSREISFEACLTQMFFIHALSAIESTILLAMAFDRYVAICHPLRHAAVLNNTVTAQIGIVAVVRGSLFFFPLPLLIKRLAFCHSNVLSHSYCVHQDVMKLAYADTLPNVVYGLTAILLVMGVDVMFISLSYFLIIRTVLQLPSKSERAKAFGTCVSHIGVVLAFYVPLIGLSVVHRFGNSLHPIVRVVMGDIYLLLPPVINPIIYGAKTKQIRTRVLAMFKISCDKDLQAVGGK
Summary of the method: (§1)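 Hana3A cells were co-transfected with Rho-tagged OR, RTP1S, CRE-luciferase and pRL-SV40, then exposed to odorant in CD293 medium for 4 hrs at 37° C. Firefly luminescence was divided by Renilla and normalized as (LN−Lmin)/(Lmax−Lmin) per plate set. Each dose was tested at least three times, and EC50 came from sigmoidal fits.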

[2] = system: mouse odorant receptors (ORs); test: as above; assay type: cell-based; conditions: 0 = no response; for log EC50, MOR138-1: receptor MOR138-1; for log EC50, MOR139-1: receptor MOR139-1; for log EC50, MOR189-1: receptor MOR189-1; for log EC50, MOR272-1: receptor MOR272-1; for log EC50, MOR273-1: receptor MOR273-1
[3] = system: MOR271-1; test: CRE-luciferase assay of odorant receptor activation, enantiomeric pairs; assay type: cell-based, mouse; conditions: CRE-luciferase in Hana3A cells; (+) versus (−) enantiomer; FIG. 6
Text: (§2) Cloning mouse and human ORs. 219 mouse and 245 human odorant receptors were cloned with sequence information from The Olfactory Receptor Database (Healy et al., Chemical Senses 22, 321-6 (1997); herein incorporated by reference in its entirety). […] OR open reading frames were amplified from genomic DNA using proofreading KOD DNA polymerase (Toyobo/Novagen) and subcloned into pCI expression vectors (Promega) containing the first 20 residues of human rhodopsin (Rho tag). The sequences of the cloned receptors were verified by sequencing (3100 Genetic Analyzer, ABI Biosystems). Immunocytochemistry and FACS analysis. […] The intensity of receptor cell surface expression was calculated as the ratio of PE and GFP expression. […] Luminescence was measured using a Wallac Victor 1420 plate reader (Perkin-Elmer). All luminescence values were divided by the Renilla Luciferase activity to control for transfection efficiency in a given well. Normalized luciferase activity was calculated using the formula (LN−Lmin)/(Lmax−Lmin), where LN is the luminescence of firefly luciferase in response to the odorant, Lmin is the minimum luciferase value on a plate or set of plates, and Lmax is the maximum luciferase value on a plate or set of plates. The data was analyzed using Microsoft Excel and GraphPad Prism 4. […]

[4] = system: MOR2-1; test: as above; assay type: cell-based, mouse; conditions: CRE-luciferase in Hana3A cells; at some doses; compared with the other enantiomer; FIG. 6
Text: OR open reading frames were amplified from genomic DNA using proofreading KOD DNA polymerase (Toyobo/Novagen) and subcloned into pCI expression vectors (Promega) containing the first 20 residues of human rhodopsin (Rho tag). The sequences of the cloned receptors were verified by sequencing (3100 Genetic Analyzer, ABI Biosystems). Immunocytochemistry and FACS analysis. […] For FACS analysis, phycoerythrin (PE)-conjugated anti-mouse IgG (Jackson Immunologicals) was used. In order to monitor the transfection efficiency, Green Fluorescent Protein (GFP) was co-transfected with the OR. The intensity of receptor cell surface expression was calculated as the ratio of PE and GFP expression. 7-aminoactinomycin D (Calbiochem) was added before flow cytometry to mark dead cells which were excluded from the analysis. The gate and mean of PE positive cells was normalized by GFP values. Luciferase assay. […] All luminescence values were divided by the Renilla Luciferase activity to control for transfection efficiency in a given well. […] Each comparison was performed in triplicate; statistical significance was assessed by t-test (uncorrected for multiple comparisons). […] For all remaining odorant pairs the Pearson correlation between EC50 vectors and the Euclidean distance between descriptor vectors was calculated. The Pearson correlation between these two sets of distances was then measured. […]

[5] = system: MOR107-1; test: as above; assay type: cell-based, mouse; conditions: CRE-luciferase in Hana3A cells; (+) versus (−) enantiomer; FIG. 6
Text: as §2

[6] = target: T2, mouse odorant receptors (ORs) (Mus musculus, UniProt P23275); test: CRE-luciferase assay of odorant receptor activation (Dual-Glo, Hana3A cells, RTP1S), dose-response EC50; assay type: cell-based; conditions: receptor MOR256-17; read-out: log EC50 of odorant at MOR256-17 (0 = no response) (converted)
T2 construct: OR open reading frames were amplified from genomic DNA; expressed in transfected cells; host or cells: Hana3A cells, co-transfected with RTP1S, CRE-luciferase and pRL-SV40
T2 sequence (P23275 1-312): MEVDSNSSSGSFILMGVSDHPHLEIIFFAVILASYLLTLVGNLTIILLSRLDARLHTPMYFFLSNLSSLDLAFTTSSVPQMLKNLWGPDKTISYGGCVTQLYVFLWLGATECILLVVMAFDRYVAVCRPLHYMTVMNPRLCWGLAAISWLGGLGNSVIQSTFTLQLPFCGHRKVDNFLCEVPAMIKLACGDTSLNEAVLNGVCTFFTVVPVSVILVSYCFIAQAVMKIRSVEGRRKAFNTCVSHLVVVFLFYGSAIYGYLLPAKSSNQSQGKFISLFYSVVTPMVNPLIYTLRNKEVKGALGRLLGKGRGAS

[7] = target: T3, human odorant receptors (ORs) (Homo sapiens, UniProt Q8NHC4); test: as above; assay type: cell-based; conditions: receptor OR10J5; read-out: log EC50 of odorant at OR10J5 (0 = no response) (converted)
T3 construct: OR open reading frames were amplified from genomic DNA; expressed in transfected cells; host or cells: Hana3A cells, co-transfected with RTP1S, CRE-luciferase and pRL-SV40
T3 sequence (Q8NHC4 1-309): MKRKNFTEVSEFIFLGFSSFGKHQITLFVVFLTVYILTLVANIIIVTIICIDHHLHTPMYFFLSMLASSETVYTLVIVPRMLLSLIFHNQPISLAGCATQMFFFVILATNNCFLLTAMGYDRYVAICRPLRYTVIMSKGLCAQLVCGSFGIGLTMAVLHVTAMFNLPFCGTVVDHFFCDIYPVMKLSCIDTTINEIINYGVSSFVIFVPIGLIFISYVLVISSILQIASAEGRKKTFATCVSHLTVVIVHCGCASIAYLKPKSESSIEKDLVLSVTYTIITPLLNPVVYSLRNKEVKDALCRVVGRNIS
Summary of the method: as §1

Structure (SMILES) | log EC50, MOR138-1 [2] | log EC50, MOR139-1 [2] | log EC50, MOR189-1 [2] | log EC50, MOR272-1 [2] | log EC50, MOR273-1 [2] | other results
CCC(=O)O [Propionic acid] | – | – | – | – | – | EC50 [1]: 109 µM
CC1(C)C(=O)[C@@]2(C)CCC1C2 (single isomer, unassigned; (+)) [(+) enantiomer of fenchone, (+)-Fenchone] | −4.626 | −3.773 | −4.423 | −4.35 | −4.073 | log EC50, MOR271-1 ([2]; receptor MOR271-1): −4.859; activation of MOR271-1 [3]: only activated by the (+) enantiomer
CCC(C(=O)O)c1ccccc1 (single isomer, unassigned; (+)) [(+) enantiomer of 2-phenylbutyric acid, (+)-2-Phenylbutyric acid] | – | – | – | – | – | log EC50, MOR2-1 ([2]; receptor MOR2-1): −3.499; response of MOR2-1 [4]: responded more strongly
CC1(C)C(=O)[C@]2(C)CCC1C2 (single isomer, unassigned; (-)) [(−) enantiomer of fenchone, (−)-Fenchone] | −4.481 | −3.879 | −4.239 | −3.558 | −5.231 | log EC50, MOR107-1 ([2]; receptor MOR107-1): −4.302; activation of MOR107-1 [5]: activated only by the (−) enantiomer
CC(C)(O)CCCC1=CCC(C=O)CC1 (stereo not shown) [Lyral] | – | – | – | – | – | EC50 [6]: 55.6 µM; EC50 [7]: 324 µM
